Measurements as given in BindingDB's records for doi:10.1016/j.bmcl.2009.09.046 (Ligand Pharmaceuticals, 2009).

Test: Inhibition of ROCK1 in human THP1 cells assessed as inhibition of MCP1-induced cell migration

SMILES	IC50
c1ccc2c(c1)CC(Oc1nc(Nc3ccncc3)nc(N3CCNCC3)n1)C2 [4-(2,3-dihydro-1H-inden-2-yloxy)-6-(piperazin-1-yl)-N-(pyridin-4-yl)-1,3,5-triazin-2-amine]	57 nM
C[C@@H]1CN(c2nc(Nc3ccncc3)nc(NC3Cc4ccccc4C3)n2)CCN1 [(R)-N2-(2,3-dihydro-1H-inden-2-yl)-6-(3-methylpiperazin-1-yl)-N4-(pyridin-4-yl)-1,3,5-triazine-2,4-diamine]	26 nM
c1ccc2c(c1)CC(Nc1cc(Nc3ccncc3)nc(N3CCNCC3)n1)C2 [N4-(2,3-dihydro-1H-inden-2-yl)-2-(piperazin-1-yl)-N6-(pyridin-4-yl)pyrimidine-4,6-diamine]	12 nM
c1ccc2c(c1)CC(Nc1cc(N3CCNCC3)nc(Nc3ccncc3)n1)C2 [N4-(2,3-dihydro-1H-inden-2-yl)-6-(piperazin-1-yl)-N2-(pyridin-4-yl)pyrimidine-2,4-diamine]	154 nM
